We go through one compound from patent publication US20100221197A1, “ANTIMICROBIAL AGENT AND EXTERNAL PREPARATION FOR SKIN CONTAINING THE SAME” (TAIYO CORPORATION, priority 2007, published 2010).

The subject of series [1] is Propionibacterium acnes (JCM 6425). In words: Microbicidal test for Propionibacterium acnes. It is filed as cell-based. Particulars: 200 ppm sample in 0.2 M phosphate buffer (pH7.0), anaerobic; FIG. 2. How it is done:
Ricinoleic acid monoglyceride synthesized in “1. Synthesis Example of ricinoleic acid monoglyceride” was added to a 0.2 M phosphate buffer (pH7.0) to prepare a 200 ppm sample. 0.1 mL of Propionibacterium acnes (JCM 6425) at approximately 1×10^8CFU/mL was added to 5 mL of the sample. While being kept under the anaerobic condition, the bacterial sample was taken at 0, 5, 10, 30, 60 and 120 minutes after the addition, and the number of survival bacteria in the sample was counted at each retention time. Specifically, using a GAM agar medium, the sample was serially diluted, cultured using the flat plate smear method at 37° C. under the anaerobic condition for 4 days, and then the number of bacteria was counted. As the comparative control, 4-isopropyl-3-methylphenol was simultaneously evaluated in the same way as in the above.

Series [2] has the same test system. The experiment in a line: Antimicrobial test, growth inhibition minimum concentration (anaerobic). The conditions noted are these: Table 1, P. acnes(JCM6425), 37° C., 48 hours. It is filed as cell-based. How it is done: 0.5 mL of the previously sterilized medium (brand name: Brain Heart Infusion Liquid Medium supplied by Nihon Pharmaceutical Co., Ltd.) was added to a 96-well deep type microplate, and 0.5 mL of ricinoleic acid monoglyceride or diglycerine ricinoleic acid monoester of the present invention (synthesized in “1. Synthesis Example of ricinoleic acid monoglyceride” and “2. Synthesis Example of diglycerine ricinoleic acid monoester,” respectively) was added thereto and serially prepared so that the final concentration in the medium was 3 ppm, 6 ppm, 12 ppm, 25 ppm, 50 ppm, 100 ppm, 200 ppm and 400 ppm. 0.1 mL of a cultured bacterial medium of Propionibacterium acnes (JCM 6425) at approximately 1×10^8CFU/mL was added to this sample solution, and cultured at 37° C. under an anaerobic condition using a deoxidizer for 48 hours. The antimicrobial effect was visually determined, and the growth inhibition minimum concentration was measured. As a Comparative Example, the growth inhibition minimum concentration of 4-isopropyl-3-methylphenol known as the antimicrobial agent having a broad antimicrobial spectrum was measured in the same way as in the above.

Another series relates to S. epidermidis(JCM2414). In words: Antimicrobial test, growth inhibition minimum concentration. It is filed as cell-based, Staphylococcus epidemidis. The conditions noted are these: Table 2. How it is done: (§1) 0.5 mL of a previously sterilized medium (brand name: Brain Heart Infusion Liquid Medium supplied by Nihon Pharmaceutical Co., Ltd.) was added into a 96-well deep type microplate, and 0.5 mL of ricinoleic acid monoglyceride or diglycerine ricinoleic acid monoester of the present invention (synthesized in “1. Synthesis Example of ricinoleic acid monoglyceride” and “2. Synthesis Example of diglycerine ricinoleic acid monoester,” respectively) was added thereto and serially prepared so that the final concentration in the medium was 3 ppm, 6 ppm, 12 ppm, 25 ppm, 50 ppm, 100 ppm, 200 ppm and 400 ppm. 0.1 mL of each cultured bacterial medium of Corynebacterium xerosis (JCM 1971) or Staphylococcus aureus (JCM 2151) at approximately 1×10^8CFU/mL was added to this sample solution, stirred, and then cultured at 37° C. under an aerobic condition for 24 hours. The antimicrobial effect was visually determined, and compared with test plots in which the microorganism had not been added. The test plot in which no turbidity due to growth of the microorganism was observed was determined as the test plot having the antimicrobial effect, and the lowest concentration required for inhibiting the growth of the microorganism (hereinafter referred to as a “growth inhibition minimum concentration”) was measured. As a Comparative Example, the growth inhibition minimum concentration of 4-isopropyl-3-methylphenol known as the antimicrobial agent having a broad antimicrobial spectrum was measured in the same way as in the above. The growth inhibition minimum concentrations of ricinoleic acid monoglyceride and diglycerine ricinoleic acid monoester of the present invention (synthesized in “1. Synthesis Example of ricinoleic acid monoglyceride” and “2. Synthesis Example of diglycerine ricinoleic acid monoester,” respectively) for the 9 indicator bacterial species shown in Table 2 were measured in the same way as in “3. Antimicrobial test” described above.

In the next series the test system is B. cereus(JCM2152). The description is as above. It is filed as cell-based, Bacillus cereus. The conditions noted are these: Table 2. How it is done:
as §1

In another series the test system is S. mutans(JCM5175). The series is described as above. It is filed as cell-based, Streptococcus mutans. Particulars: Table 2. How it is done: as §1
Another series relates to P. gingivalis(JCM8525). The description is as above. It is filed as cell-based, Porphyromonas gingivalis. The conditions noted are these: Table 2. How it is done:
as §1

In series [3] the test system is Staphylococcus aureus (JCM 2151). In words: Microbicidal test for Staphylococcus aureus. It is filed as cell-based. The conditions noted are these: 200 ppm sample in 0.2 M phosphate buffer (pH7.0), aerobic; FIG. 1. How it is done: Ricinoleic acid monoglyceride synthesized in “1. Synthesis Example of ricinoleic acid monoglyceride” was added to a 0.2 M phosphate buffer (pH7.0) to prepare a 200 ppm sample. 0.1 mL of Staphylococcus aureus (JCM 2151) at approximately 1×10^8CFU/mL was added to 5 mL of the sample. While being kept under the aerobic condition, the bacterial sample was taken at 0, 5, 10, 30, 60 and 120 minutes after the addition, and the number of survival bacteria in the sample was counted at each retention time. Specifically, using a Brain Heart Infusion agar medium, the sample was serially diluted, cultured using a flat plate smear method at 37° C. for 48 hours, and then the number of bacteria was counted. As a comparative control, 4-isopropyl-3-methylphenol was simultaneously evaluated in the same way as in the above.

Series [4] in a line: Compounding property in external preparations for skin. It is filed as physicochemical. How it is done:
Hyaluronic acid, ethanol, glycerine and ricinoleic acid monoglyceride were mixed, and then purified water was added to obtain a skin lotion.
Squalane, jojoba oil, bees wax and sorbitan sesquioleate were mixed, heated to 70° C. and dissolved (this was a mixture A). On the other hand, xanthan gum, 1,3-butylene glycol, ethanol and ricinoleic acid monoglyceride were mixed at room temperature (this was a mixture B). Subsequently, the mixture A and the mixture B were mixed, heated to 60° C., and added little by little to the purified water in which the N-palm oil fatty acid acyl L-arginine ethyl-DL-pyrrolidone carboxylate salt had been added, and vigorously stirring to emulsify to obtain a milky lotion.
Squalane, stearic acid, bees wax, stearyl alcohol and ricinoleic acid monoglyceride were mixed, heated to 70° C. and dissolved. The N-palm oil fatty acid acyl L-arginine ethyl-DL-pyrrolidone carboxylate salt and the purified water were added little by little to these heated and dissolved oil-based ingredients, and these were stirred well to obtain a cream.

In the next series the test system is B. subtile(JCM2151). In words: Antimicrobial test, growth inhibition minimum concentration. It is filed as cell-based, Bacillus subtilis. Particulars: Table 2. How it is done: as §1
In the next series the test system is E. coli(JCM1649). The description is as above. It is filed as cell-based, Escherichia coli. How it is done:
as §1

The subject of series [5] is L. monocytogenes(JCM7671). The description is as above. It is filed as cell-based, Listeria monocytogenes. Particulars: Table 2. How it is done:
as §1

Series [6] concerns Corynebacterium xerosis (JCM 1971). The description is as above. It is filed as cell-based. The conditions noted are these: C. xerosis(JCM1971). How it is done: as §1
Series [7] deals with Staphylococcus aureus (JCM 2151). The series is described as above. It is filed as cell-based. Particulars: S. aureus(JCM2151). How it is done:
as §1

[8] abbreviates: Table 1, 37° C., aerobic, 24 hours.

Consider `CCCCCC[C@@H](O)C/C=C\CCCCCCCC(=O)OCC(O)CO` (stereo partly drawn) [ricinoleic acid monoglyceride], for which the “retention time for reducing the number of bacteria to 1/100 or less” value in series [1] is at most 5 min. Also, the minimum inhibitory concentration in series [2] came to 50 ppm; with S. epidermidis(JCM2414), 25 ppm; in the series on B. cereus(JCM2152) it was 12.5 ppm; in the series with S. mutans(JCM5175), 25 ppm; in the series with P. gingivalis(JCM8525), 6 ppm; in the series with B. subtile(JCM2151), 25 ppm. The minimum inhibitory concentration was over 400 ppm in the series with E. coli(JCM1649) (Table 2, E. coli(JCM1649)); 25 ppm in series [5]; 25 ppm in series [6] (setting [8]); 25 ppm in series [6] (Table 2); 25 ppm in [7] (setting [8]); 25 ppm in series [7] (Table 2). Moreover, in series [3], the “retention time for reducing the number of bacteria to 1/1000 or less” value was at most 10 min. Further, the “compounding property: mixing with the other ingredients” value is on record as “mixed very well” in series [4] (cream, 2.0% by weight) and “easily mixed” in [4] (skin lotion, 0.5% by weight). In series [4] (milky lotion, 1.0% by weight), the “blending property: mixing with the other ingredients” value is “immediately mixed”. Also, in the series with E. coli(JCM1649) (statement in words from Table 2), the “antimicrobial activity against Escherichia coli” value was “did not exhibit antimicrobial activity”.
